Laboratory results as given in US11406624B2, “Pyrazolopyridine compounds and uses thereof” (Incyte Corporation, priority 2017, dated 2022).

Molecular target: HPK1 (Homo sapiens (Human), UniProt Q92918)
Assay: HPK1 Kinase Binding Assay
Details: LanthaScreen tracer 222 binding, active HPK1, one hour incubation at 25° C.
Procedure: A stock solution of 1 mM test compound was prepared in DMSO. The compound plate was prepared by 3-fold and 11-point serial dilutions. 0.1 μL of the compound in DMSO was transferred from the compound plate to the white 384 well polystyrene plates. The assay buffer contained 50 mM HEPES, pH 7.5, 0.01% Tween-20, 5 mM MgCl2, 0.01% BSA, and 5 mM DTT. 5 μl of 4 nM active HPK1 (SignalChem M23-11G) prepared in the buffer was added to the plate. The enzyme concentration given was based on the given stock concentration reported by the vender. 5 μl of 18 nM tracer 222 (ThermoFisher PV6121) and 4 nM LanthaScreen Eu-Anti GST antibody (ThermoFisher PV5595) were added. After one hour incubation at 25° C., the plates were read on a PHERAstar FS plate reader (BMG Labtech). Ki values were determined.

HPK1, sequence (Q92918 1-346): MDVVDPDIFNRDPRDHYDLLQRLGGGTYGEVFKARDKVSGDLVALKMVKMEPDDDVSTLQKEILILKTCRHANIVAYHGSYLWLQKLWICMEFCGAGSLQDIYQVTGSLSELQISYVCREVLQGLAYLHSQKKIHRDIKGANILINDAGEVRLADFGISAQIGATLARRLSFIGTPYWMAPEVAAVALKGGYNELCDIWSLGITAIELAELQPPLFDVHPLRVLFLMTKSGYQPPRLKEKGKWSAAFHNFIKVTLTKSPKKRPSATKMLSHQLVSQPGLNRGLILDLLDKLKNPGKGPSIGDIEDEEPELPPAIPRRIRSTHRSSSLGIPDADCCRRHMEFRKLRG

Ki, ≤ 100 nM:
Cc1ccncc1-c1cc2c(NC(=O)c3ccc(N4CCOCC4)cc3)n[nH]c2cn1 [Example 1, N-(5-(4-methylpyridin-3-yl)-1H-pyrazolo[3,4-c]pyridin-3-yl)-4-morpholinobenzamide]
Cc1ccncc1-c1cc2c(NC(=O)c3ccc(N4CCN(C)CC4)cc3)n[nH]c2cn1 [Example 2, 4-(4-Methylpiperazin-1-yl)-N-(5-(4-methylpyridin-3-yl)-1H-pyrazolo[3,4-c]pyridin-3-yl)benzamide]
CCOC(=O)N1CCN(c2ccc(C(=O)Nc3n[nH]c4cnc(-c5cnccc5C)cc34)cc2)CC1 [Example 3, Ethyl 4-(4-(5-(4-methylpyridin-3-yl)-1H-pyrazolo[3,4-c]pyridin-3-ylcarbamoyl)phenyl)piperazine-1-carboxylate]
COC1CCN(c2ccc(C(=O)Nc3n[nH]c4cnc(-c5cnccc5C)cc34)cc2)CC1 [Example 4, 4-(4-Methoxypiperidin-1-yl)-N-(5-(4-methylpyridin-3-yl)-1H-pyrazolo[3,4-c]pyridin-3-yl)benzamide]
Cc1ccncc1-c1cc2c(NC(=O)c3ccc(N4CCCC(N)C4)cc3)n[nH]c2cn1 (stereo not shown) [Example 5, 4-(3-Aminopiperidin-1-yl)-N-(5-(4-methylpyridin-3-yl)-1H-pyrazolo[3,4-c]pyridin-3-yl)benzamide]
Cc1c(-c2cc3c(NC(=O)c4ccc(N5CCOCC5)cc4)n[nH]c3cn2)cnn1C [Example 6, N-(5-(1,5-dimethyl-1H-pyrazol-4-yl)-1H-pyrazolo[3,4-c]pyridin-3-yl)-4-morpholinobenzamide]
Cc1c(-c2cc3c(NC(=O)c4ccc(N5CCN(C)CC5)cc4)n[nH]c3cn2)cnn1C [Example 7, N-(5-(1,5-dimethyl-1H-pyrazol-4-yl)-1H-pyrazolo[3,4-c]pyridin-3-yl)-4-(4-methylpiperazin-1-yl)benzamide]
CCOC(=O)N1CCN(c2ccc(C(=O)Nc3n[nH]c4cnc(-c5cnn(C)c5C)cc34)cc2)CC1 [Example 8, Ethyl 4-(4-(5-(1,5-dimethyl-1H-pyrazol-4-yl)-1H-pyrazolo[3,4-c]pyridin-3-ylcarbamoyl)phenyl)piperazine-1-carboxylate]
COC1CCN(c2ccc(C(=O)Nc3n[nH]c4cnc(-c5cnn(C)c5C)cc34)cc2)CC1 [Example 9, N-(5-(1,5-dimethyl-1H-pyrazol-4-yl)-1H-pyrazolo[3,4-c]pyridin-3-yl)-4-(4-methoxypiperidin-1-yl)benzamide]
COC1CCCN(c2ccc(C(=O)Nc3n[nH]c4cnc(-c5cnn(C)c5C)cc34)cc2)C1 (stereo not shown) [Example 10, N-(5-(1,5-dimethyl-1H-pyrazol-4-yl)-1H-pyrazolo[3,4-c]pyridin-3-yl)-4-(3-methoxypiperidin-1-yl)benzamide]
CCCNc1ccc(C(=O)Nc2n[nH]c3cnc(-c4cnn(C)c4C)cc23)cc1 [Example 11, N-(5-(1,5-dimethyl-1H-pyrazol-4-yl)-1H-pyrazolo[3,4-c]pyridin-3-yl)-4-(propylamino)benzamide]
COCCNc1ccc(C(=O)Nc2n[nH]c3cnc(-c4cnn(C)c4C)cc23)cc1 [Example 12, N-(5-(1,5-dimethyl-1H-pyrazol-4-yl)-1H-pyrazolo[3,4-c]pyridin-3-yl)-4-(2-methoxyethylamino)benzamide]
Cc1c(-c2cc3c(NC(=O)c4ccc(N5CCC(F)(F)C5)cc4)n[nH]c3cn2)cnn1C [Example 13, 4-(3,3-Difluoropyrrolidin-1-yl)-N-(5-(1,5-dimethyl-1H-pyrazol-4-yl)-1H-pyrazolo[3,4-c]pyridin-3-yl)benzamide]
COc1ccncc1-c1cc2c(NC(=O)c3ccc(N4CCN(C)CC4)cc3)n[nH]c2cn1 [Example 14, N-(5-(4-methoxypyridin-3-yl)-1H-pyrazolo[3,4-c]pyridin-3-yl)-4-(4-methylpiperazin-1-yl)benzamide]
Cc1ccncc1-c1cc2c(C(=O)Nc3ccc(N4CCN(C)CC4)cc3)n[nH]c2cn1 [Example 15, N-(4-(4-methylpiperazin-1-yl)phenyl)-5-(4-methylpyridin-3-yl)-1H-pyrazolo[3,4-c]pyridine-3-carboxamide]
COc1ccncc1-c1cc2c(C(=O)Nc3ccc(N4CCN(C)CC4)cc3)n[nH]c2cn1 [Example 16, 5-(4-Methoxypyridin-3-yl)-N-(4-(4-methylpiperazin-1-yl)phenyl)-1H-pyrazolo[3,4-c]pyridine-3-carboxamide]
